Results on 9 molecules are retold here after patent publication US7112585B2, “Pyrimidine derivatives as corticotropin releasing factor inhibitors” (Bristol-Myers Squibb Company, priority 2003, dated 2006).

The target in data set [1] is T1, cloned human CRF-R1 receptors (Homo sapiens, UniProt P34998).
T1 construct: the coding region was amplifies by PCR from start to stop codons; expressed in transfected cells; host or cells: 293EBNA (HEK 293 EBNA-1) cells, episomal vector phchCRFR, hygromycin-selected pool; membranes
T1 sequence (P34998 24-415): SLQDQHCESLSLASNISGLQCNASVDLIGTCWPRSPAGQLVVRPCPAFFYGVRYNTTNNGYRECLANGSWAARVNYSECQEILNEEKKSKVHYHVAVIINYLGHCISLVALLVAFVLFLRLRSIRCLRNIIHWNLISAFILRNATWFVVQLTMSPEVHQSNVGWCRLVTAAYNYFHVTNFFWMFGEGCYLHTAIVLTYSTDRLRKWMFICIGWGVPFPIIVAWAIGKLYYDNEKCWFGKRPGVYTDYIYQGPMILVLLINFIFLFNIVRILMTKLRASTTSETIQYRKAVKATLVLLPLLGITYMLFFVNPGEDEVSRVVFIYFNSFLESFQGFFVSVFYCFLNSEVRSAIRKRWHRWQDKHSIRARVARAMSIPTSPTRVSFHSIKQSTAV
Put plainly: CRF-R1 Receptor Binding Assay (inhibition of 125I-ovine-CRF binding to cell membranes). More on the design: key to activity: a: Ki≦100 nM; b: 100 nM<Ki≦500 nM; c: 500 nM<Ki≦5,000 nM; activity reported in percent inhibition at 10 μM. The note with it: CRF assays; class d = activity only as percent inhibition at 10 μM (value not given). The source says:
CRF-R1 Receptor Binding Assay for the Evaluation of Biological Activity
The following is a description of the isolation of cell membranes containing cloned human CRF-R1 receptors for use in a standard binding assay as well as a description of the assay itself.
Messenger RNA was isolated from human hippocampus. The mRNA was isolated from human hippocampus. The mRNA was reverse transcribed using oligo (dt) 12–18 and the coding region was amplifies by PCR from start to stop codons. The resulting PCR fragment was cloned into the EcORV site of pGEMV, from whence the insert was reclaimed using XhoI+XbaI and cloned into the XhoI+XbaI sites of vector pm3as (which contains a CMV promoter, the SV′t′ splice and early poly A signals, an Eptein-Barr viral origin of replication, and a hygromycin selectable marker). The resulting expression vector, called phchCRFR was transfected in 293EBNA cells and cells retaining the episome were selected in the presence of […] hygromycin. Cells surviving 4 weeks of selection in hygromycin were pooled, adapted to growth in suspension and used to generate membranes for the binding assay described below. Individual aliquots containing approximately 1×10^8 of the suspended cells were then centrifuged to form a pellet and frozen. For the binding assay a frozen pellet described above containing 293EBNA cells transfected with hCRFR1 receptors is homogenized in 10 mL of ice cold tissue buffer (50 mM HEPES buffer pH 7.0, containing 10 MM MgCl2, 2 mM EGTA, 1 μg/mL apotinin, 1 μg/mL leupeptin and 1 μg/mL pepstatin). The homoginate is centrifuged at 40,000×g for 12 min and the resulting pellet rehomogenized in 10 mL of tissue buffer. After another centrifugation at 40,000×g for 12 min, the pellet is resuspended to a protein concentration of 360 μg/mL to be used in the assay.
Binding assays are performed in 96 well plates; each well having a 300 μL capacity. To each well is added 50 μL of test drug dilutions (final concentration of drugs range from 10^−10–10^−5 M), 100 μL of ^125I-ovine-CRF (^125I-o-CRF) (final concentration 150 pM) and 150 μL of the cell homoginate described above. Plates are then allowed to incubate at room temperature for 2 hours before filtering the incubate over GF/F filters (presoaked with 0.3% polyethyleneimine) using an appropriate cell harvester. Filters are rinsed 2 times with ice cold assay buffer before removing individual filters and assessing them for radioactivity on a gamma counter.
Curves of the inhibition of ^125I-o-CRF binding to cell membranes at various dilutions of test drug are analyzed by the iterative curve fitting program LIGAND [P. J. Munson and D. Rodbard, Anal. Biochem., 107:220 (1980), which provides Ki values for inhibition which are then used to assess biological activity. […]
Messenger RNA was isolated from human hippocampus. The mRNA was isolated from human hippocampus. The mRNA was reverse transcribed using oligo (dt) 12–18 and the coding region was amplifies by PCR from start to stop codons. The resulting PCR fragment was cloned into the EcORV site of pGEMV, from whence the insert was reclaimed using XhoI+XbaI and cloned into the XhoI+XbaI sites of vector pm3as (which contains a CMV promoter, the SV′t′ splice and early poly A signals, an Eptein-Barr viral origin of replication, and a hygromycin selectable marker). The resulting expression vector, called phchCRFR was transfected in 293EBNA cells and cells retaining the episome were selected in the presence of […] hygromycin. Cells surviving 4 weeks of selection in hygromycin were pooled, adapted to growth in suspension and used to generate membranes for the binding assay described below. […]
A frozen pellet described above containing 293EBNA cells transfected with hCRFR1 receptors or the rat frontal cortex tissue dissected from frozen rat brains was prepared as the source of membranes expressing CRF1 receptors used in binding assays. […]

Where only a bound is given, the exact number is not on record here.

What is called Ki is a dissociation constant, usually derived from enzyme kinetics or from competition with a known ligand. In general, melting point refers to the temperature of the solid-liquid transition.

`Cc1cc(C)c(Nc2nc(C)ncc2S(=O)(=O)c2ccc(C#N)cc2)c(C)c1` [Example 22, 4-[2-Methyl-4-(2,4,6-trimethylphenylamino)-pyrimidine-5-sulfonyl]-benzonitrile] came in with a melting point of 258 to 260 °C. For the same molecule, the Ki in data set [1] is 500 to 5000 nM.
Consider `Cc1ccc(S(=O)(=O)c2cnc(C)nc2Nc2c(C)cc(C)cc2C)cc1` [Example 23, [2-Methyl-5-(toluene-4-sulfonyl)-pyrimidin-4-yl]-(2,4,6-trimethylphenyl)-amine], for which the melting point is 202 to 204 °C. This molecule also returned a Ki in data set [1] of 100 to 500 nM.
`Cc1cc(C)c(Nc2nc(C)ncc2S(=O)(=O)c2ccc(-c3cncnc3)cc2)c(C)c1` [Example 24, [2-Methyl-5-(4-pyrimidin-5-yl-benzenesulfonyl)-pyrimidin-4-yl]-(2,4,6-trimethylphenyl)-amine] yielded a melting point of 210 to 212 °C. The activity entry in data set [1] is on record as “d”.
In turn, `Cc1cc(C)c(Nc2nc(C)ncc2S(=O)(=O)c2ccc(-c3ncccn3)cc2)c(C)c1` [Example 25, [2-Methyl-5-(4-pyrimidin-2-yl-benzenesulfonyl)-pyrimidin-4-yl]-(2,4,6-trimethylphenyl)-amine] had a melting point of 215 to 217 °C. Further, the Ki in data set [1] was no more than 100 nM.
`Cc1cc(C)c(Nc2nc(C)ncc2S(=O)(=O)c2ccc(-c3ccncc3)cc2)c(C)c1` [Example 26, [2-Methyl-5-(4-pyridin-4-yl-benzenesulfonyl)-pyrimidin-4-yl]-(2,4,6-trimethylphenyl)-amine] came in with a melting point of 232 to 234 °C. In data set [1], this molecule registered an inhibition constant (Ki) of 500 to 5000 nM.
For `Cc1cc(C)c(Nc2nc(C)ncc2S(=O)(=O)c2ccc(-c3ccccn3)cc2)c(C)c1` [Example 27, [2-Methyl-5-(4-pyridin-2-yl-benzenesulfonyl)-pyrimidin-4-yl]-(2,4,6-trimethylphenyl)-amine], the melting point lay in the range of 201 to 203 °C. In data set [1], this molecule came in with a Ki of no more than 100 nM.
For `Cc1cc(C)c(Nc2nc(C)ncc2S(=O)(=O)c2ccc(-c3cccnc3)cc2)c(C)c1` [Example 28, [2-Methyl-5-(4-pyridin-3-yl-benzenesulfonyl)-pyrimidin-4-yl]-(2,4,6-trimethylphenyl)-amine], in that order: 190 to 192 °C and 500 to 5000 nM.
Consider `Cc1cc(C)c(Nc2nc(C)ncc2S(=O)(=O)c2ccc(C3=NCCN3)cc2)c(C)c1` [Example 29, {5-[4-(4,5-Dihydro-1H-imidazol-2-yl)-benzenesulfonyl]-2-methyl-pyrimidin-4-yl}-(2,4,6-trimethylphenyl)-amine], for which the melting point lay in the range of 240 to 242 °C. For the same molecule, the activity entry in data set [1] is “d”.
For `Cc1cc(C)c(Nc2nc(C)ncc2S(=O)(=O)c2ccc(-c3ncc[nH]3)cc2)c(C)c1` [Example 30, {5-[4-(1H-Imidazol-2-yl)-benzenesulfonyl]-2-methyl-pyrimidin-4-yl}-(2,4,6-trimethylphenyl)-amine], the melting point lay in the range of 282 to 284 °C. In addition, the activity result in data set [1] is reported as “d”.
